Test results from patent US20260285853A1, “COMPOUNDS AND METHODS FOR MODULATING SPLICING” (REMIX THERAPEUTICS INC., priority 2023, published 2026).
pIC50: −log10 of the molar value. Where two headings read alike, the source gives them in different places.

Legend:
Format in all cases: cell-based
[1] = system: HTT mRNA; assay: Splicing RT-qPCR assay (THP), Table 2A
[2] = system: SH-SY5Y (human neuroblastoma) cells; assay: Cell viability, Cell Titer Glo 2.0 assay; settings: read-out: Viability SHSY5Y.3 GI50
Experimental: Compounds described herein were screened for toxicity in K562 (human chronic myelogenous leukemia) and SH-SY5Y (human neuroblastoma) cells using a Cell Titer Glo 2.0 assay.
• Promega CellTiter-Glo® 2.0 Cell Viability Assay (cat #G9241) • Corning 384-well TC-treated microplates (cat #3570)
Cells were plated at 500 cells/well (K562 cells) in 45 μL of IMDM supplemented with 10% FBS in a 384-well opaque plate. Wells containing only medium were used as a blank control. Test compounds (e.g., compounds of Formula (I) or (II) were first serially diluted in DMSO then diluted 1:100 with IMDM+10% FBS. The final concentration of DMSO was 0.1% in each well. The cells were incubated for 72 hours at 37° C. and 5% CO2 before assaying with Cell Titer Glo 2.0 reagent.

[3] = system: MYB mRNA; assay: Splicing RT-qPCR assay (THP), Table 2A
[4] = system: MYB mRNA; assay: Gene panel canonical junction qPCR assay, decrease in CJ mRNA, Table 3
Experimental: (§1) Compounds described herein were used to modulate RNA transcript abundance in cells. The expression of a target mRNA was measured by detecting the formation of an exon-exon junction in the canonical transcript (CJ). A compound mediated exon-inclusion event was detected by observing an increase in formation of a new junction with an alternative exon (AJ). Real-time qPCR assays were used to detect these splicing switches and interrogate the potency of various compounds towards different target genes. A high-throughput real time quantitative PCR (RT-qPCR) assay was developed to measure these two isoforms of the mRNA (CJ and AJ) for exemplary genes, such as HTT, SMN2, and MYB, together with a control housekeeping gene, GAPDH or GUSB or PPIA, used for normalization. Briefly, the A673 or K562 cell line was treated with various compounds described herein (e.g., compounds of Formula (I)). After treatment, the levels of the HTT, MYB, or SMN2 mRNA targets were determined from each sample of cell lysate by cDNA synthesis followed by qPCR.
(§2) The A673 cell line was cultured in DMEM with 10% FBS. Cells were diluted with full growth media and plated in a 96-well plate (15,000 cells in 100 ul media per well). The plate was incubated at 37° C. with 5% CO2 for 24 hours to allow cells to adhere. An 11-point 3-fold serial dilution of the compounds was made in DMSO then diluted in media in an intermediate plate. Compounds were transferred from the intermediate plate to the cell plate with the top dose at a final concentration of 10 uM in the well. Final DMSO concentration was kept at or below 0.25%. The cell plate was returned to the incubator at 37° C. with 5% CO2 for an additional 24 hours.
(§3) The K562 cell line was cultured in IMDM with 10% FBS. For K562, cells were diluted with full growth media and plated in either a 96-well plate (50,000 cells in 50 uL media per well) or a 384-well plate (8,000-40,000 cells in 45 uL media per well). An 11-point 3-fold serial dilution of the compounds were made in DMSO then diluted in media in an intermediate plate. Compound was transferred from the intermediate plate to the cell plate with the top dose at a final concentration of 10 uM in the well. Final DMSO concentration was kept at or below 0.25%. Final volume was 100 uL for 96-well plate and 50 uL for 384-well plate. The cell plate was then placed in an incubator at 37° C. with 5% CO2 for 24 hours.
(§4) The data analysis was performed by first determining the ΔCt vs the housekeeper gene. This ΔCt was then normalized against the DMSO control (ΔΔCt) and converted to RQ (relative quantification) using the 2^(−ΔΔCt) equation. The RQ were then converted to a percentage response by arbitrarily setting an assay window of 3.5 and 4.0 ΔCt for HTT-CJ and MYB-CJ respectively and an assay window of 9 and 3 ΔCt for HTT-AJ and MYB-AJ in 96 well format (50,000 K562 cells/well and 15,000 A673 cells per well) and an assay window of 3 and 4 ΔCt for HTT-CJ and MYB-CJ respectively and an assay window of 5 and 3 ΔCt for HTT-AJ and MYB-AJ respectively in 384 well format (8,000 K562 cells/well example). […] The percentage response was then fitted to the 4 parametric logistic equation to evaluate the concentration dependence of compound treatment. The increase in AJ mRNA is reported as AC50 (compound concentration having 50% response in AJ increase) while the decrease in CJ mRNA levels is reported as IC50 (compound concentration having 50% response in CJ decrease).
(§5) Additional studies were carried out for a larger panel of genes using the protocol provided above. The junction between flanking upstream and downstream exons was used to design canonical junction qPCR assays. At least one of the forward primer, reverse primer or the CY5-labeled 5′ nuclease probe (with 3′ quencher such as ZEN/Iowa Black FQ) was designed to overlap with the exon junction to capture the CJ mRNA transcript. […]

[5] = system: HTT mRNA; assay: as above
Experimental: as §1, §2, §3, §4, §5

[6] = Table 2A, THP, HTT alternative junction (AJ) mRNA, read-out: HTT AJ (AC50, increase in alternative junction mRNA)
[7] = Table 2A, THP, HTT canonical junction (CJ) mRNA, read-out: HTT CJ (IC50, decrease in canonical junction mRNA)
[8] = Table 2A, THP, MYB alternative junction (AJ) mRNA, read-out: MYB AJ (AC50, increase in alternative junction mRNA)
[9] = Table 2A, THP, MYB canonical junction (CJ) mRNA, read-out: MYB CJ (IC50, decrease in canonical junction mRNA)
[10] = decrease in CJ mRNA levels, canonical junction qPCR, gene panel
[11] = Table 2A (THP), AJ mRNA increase, read-out: HTT AJ (increase in alternative junction mRNA, AC50)
[12] = Table 2A (THP), CJ mRNA decrease, read-out: HTT CJ (decrease in canonical junction mRNA, IC50)
[13] = Table 2A (THP), AJ mRNA increase, read-out: MYB AJ (increase in alternative junction mRNA, AC50)
[14] = Table 2A (THP), CJ mRNA decrease, read-out: MYB CJ (decrease in canonical junction mRNA, IC50)
[15] = decrease in canonical junction (CJ) mRNA, gene panel qPCR, Table 3

Row | pIC50 [1, 7] | GI50 [2] [µM] | pIC50 [3, 9] | pIC50 [4, 10] | pIC50 [5, 10] | pIC50 [1, 12] | pIC50 [3, 14] | pIC50 [4, 15] | pIC50 [5, 15] | Structure (SMILES) | AC50 [1, 6] [µM] | AC50 [3, 8] [µM] | AC50 [1, 11] [µM] | AC50 [3, 13] [µM]
1 | 5.00 to 6.00 | 1 to 10 | 5.00 to 6.00 | 5.00 to 6.00 | 5.00 to 6.00 |  |  |  |  | CCNC1CCN(c2ccc(C(=O)Nc3cc(CNS(C)(=O)=O)c4nn(C)cc4c3)c3nn(C)cc23)CC1 [Compound 798, 4-[4-(ethylamino)-1-piperidyl]-N-[7-(methanesulfonamidomethyl)-2-methyl-indazol-5-yl]-2-methyl-indazole-7-carboxamide] | 1 to 10 | 1 to 10 |  | 
2 | 5.00 to 6.00 | 0.1 to 1 | > 7.00 | > 7.00 | 5.00 to 6.00 |  |  |  |  | Cc1cn2cc(NC(=O)c3ccc(N4CCC(NC5CC5)CC4)c4cn(C)nc34)nc(CNS(C)(=O)=O)c2n1 [Compound 837, 4-[4-(cyclopropylamino)-1-piperidyl]-N-[8-(methanesulfonamidomethyl)-2-methyl-imidazo[1,2-a]pyrazin-6-yl]-2-methyl-indazole-7-carboxamide] | 1 to 10 | < 0.1 |  | 
3 |  | > 10 |  |  |  | < 5.00 | < 5.00 | < 5.00 | < 5.00 | COc1cn2nc(C)nc2cc1NC(=O)c1ccc(N2CCC(NC3CC3)CC2)c2cn(C)nc12 [Compound 573, 4-[4-(cyclopropylamino)-1-piperidyl]-N-(6-methoxy-2-methyl-[1,2,4]triazolo-[1,5-a]-pyridin-7-yl)-2-methyl-indazole-7-carboxamide] |  |  | > 10 | > 10
4 | 6.00 to 7.00 | 0.1 to 1 | 6.00 to 7.00 | 6.00 to 7.00 | 6.00 to 7.00 |  |  |  |  | Cc1cn2cc(NC(=O)c3ccc(N4CCC(NC5CC5)CC4)c4cn(C)nc34)nc2c(Cn2cnc3ncnc(N)c32)n1 [Compound 831] | 0.1 to 1 | 0.1 to 1 |  | 
5 |  | 1 to 10 |  |  |  | 6.00 to 7.00 | > 7.00 | > 7.00 | 6.00 to 7.00 | CCNC1CCN(c2cc(F)c(C(=O)Nc3cc4cn(C)nc4cc3OC)c3nn(C)cc23)CC1 [Compound 387, 4-[4-(ethyl-amino)-1-piperidyl]-6-fluoro-N-(6-methoxy-2-methyl-indazol-5-yl)-2-methyl-indazole-7-carboxamide] |  |  | 0.1 to 1 | < 0.1
6 | < 5.00 | > 10 | < 5.00 | < 5.00 | < 5.00 |  |  |  |  | Cc1cn2cc(NC(=O)c3ccc(N4CCC(NC5CC5)CC4)c4cn(C)nc34)nc2c(CCN)n1 [Compound 753, N-[8-(2-aminoethyl)-6-methyl-imidazo[1,2-a]pyrazin-2-yl]-4-[4-(cyclopropylamino)-1-piperidyl]-2-methyl-indazole-7-carboxamide] | > 10 | > 10 |  | 
7 |  | 1 to 10 |  |  |  | < 5.00 | < 5.00 | < 5.00 | < 5.00 | CCNC1CC2(C1)CN(c1ccc(C(=O)Nc3cn4cc(C)nc(C)c4n3)c3nn(C)cc13)C2 [Compound 576] |  |  | > 10 | > 10
8 | 5.00 to 6.00 | 1 to 10 | 5.00 to 6.00 | 5.00 to 6.00 | 5.00 to 6.00 |  |  |  |  | CCNC1CCN(c2ccc(C(=O)Nc3cc(CCC(=O)NC)c4nn(C)cc4c3)c3nn(C)cc23)CC1 [Compound 876] | 1 to 10 | 1 to 10 |  | 
9 | < 5.00 | 1 to 10 | 6.00 to 7.00 | 6.00 to 7.00 | < 5.00 |  |  |  |  | COc1nc2c(C(=O)Nc3cc4cn(C)nc4cc3O)ccc(N3C[C@H](C)N[C@@H](C)C3)c2s1 [Compound 728, 7-[(3S,5S)-3,5-dimethylpiperazin-1-yl]-N-(6-hydroxy-2-methyl-indazol-5-yl)-2-methoxy-1,3-benzothiazole-4-carboxamide] | > 10 | 0.1 to 1 |  | 
10 |  | 1 to 10 |  |  |  | 5.00 to 6.00 | < 5.00 | < 5.00 | 5.00 to 6.00 | COc1nnccc1NC(=O)c1c(F)cc(N2CCC(NC3CC3)CC2)c2cn(C)nc12 [Compound 413, 4-[4-(cyclopropylamino)-1-piperidyl]-6-fluoro-N-(3-methoxypyridazin-4-yl)-2-methyl-indazole-7-carboxamide] |  |  | > 10 | 1 to 10
11 | < 5.00 | 1 to 10 | 5.00 to 6.00 | 5.00 to 6.00 | < 5.00 |  |  |  |  | Cn1cc2cc(NC(=O)c3ccc(N4CCC(NC5CC5)CC4)c4cn(C)nc34)cc(CCO)c2n1 [Compound 879] | > 10 | 1 to 10 |  | 
12 |  | > 10 |  |  |  | < 5.00 | < 5.00 | < 5.00 | < 5.00 | Cc1cn2cc(NC(=O)c3ccc(N4CCC(NC5CC5)CC4)c4cn(C)nc34)cc2c(CNS(C)(=O)=O)n1 [Compound 570, 4-[4-(cyclopropyl-amino)-1-piperidyl]-N-[1-(methanesulfonamidometh-yl)-3-methyl-pyrrolo[1,2-a]-pyrazin-7-yl]-2-methyl-indazole-7-carboxamide] |  |  | > 10 | > 10
13 | 6.00 to 7.00 | 0.1 to 1 | 6.00 to 7.00 | 6.00 to 7.00 | 6.00 to 7.00 |  |  |  |  | Cc1cn2nc(NC(=O)c3c(F)cc(N4CCC(NC5CC5)CC4)c4nc(C)sc34)cc(C)c2n1 [Compound 665, 4-[4-(cyclopropyl-amino)-1-piperidyl]-N-(2,8-dimethylimidazo[1,2-b]-pyridazin-6-yl)-6-fluoro-2-methyl-1,3-benzothiazole-7-carboxamide] | 0.1 to 1 | 0.1 to 1 |  | 
